We go through twelve molecules from patent US4536578A, “1-[3-(6-Fluoro-1,2-benzisoxazol-3-yl)propyl]-4-(substituted)piperazines” (Hoechst-Roussel Pharmaceuticals Inc., priority 1982, dated 1985).

Counter-ions that a name gives are not always drawn. Like-named read-outs stand apart in the source and are kept apart here.

Data set [1] has as its system spontaneous hypertensive rat. The data set is described as follows: antihypertensive activity in the spontaneous hypertensive rat, indirect tail cuff method. It is filed as in vivo. The note with it: 50 mg/kg of body wt, intraperitoneal, 3 days, measured on third day, group of 4 rats. How it is done:
According to this procedure, the test compound is administered intraperitoneally to a group of 4 rats for 3 days. The decrease in blood pressure is measured on the third day of administration.

The subject of data set [2] is phenyl-para-quinone induced writhing. Description: phenyl-para-quinone writhing assay in mice (analgesia). The note with it: Mus musculus, sc, read-out: Analgesic Activity ED50 (dose at which 50% of the phenyl-para-quinone induced writhing is inhibited). It is filed as in vivo. The text has this: Exptl. Biol. Med., 95, 729 (1957)]. Presented in Table I is the analgesic effect of some of the compounds of the invention, expressed as the subcutaneous dose at which 50% of the phenyl-para-quinone induced writhing is inhibited in the animals, i.e., the ED50.
(In writhing tests, fewer writhes than in controls are read as antinociception.)

Data set [3] has as its system apomorphine-induced climbing. The data set is described as follows: climbing mice assay (apomorphine-induced climbing). It is filed as in vivo. The note with it: intraperitoneal 30 min before apomorphine 1.5 mg/kg s.c. How it is done: The subject CK-1 male mice (23-27 grams) are group-housed under standard laboratory conditions. The mice are individually placed in wire mesh stick cages (4"×4" by 10") and are allowed one hour for adaptation and exploration of the new environment.
For evaluation of climbing, 3 readings are taken at 10, 20 and 30 minutes after apomorphine administration according to the following scale:
Mice consistently climbing before the injection of apormorphine will be discarded.
With full-developed apomorphine climbing, the animals are hanging onto the cage walls, rather motionless, over longer periods of time. By contrast, climbs due to mere motor stimulation usually only last a few seconds.
The climbing scores are individually totaled (maximal score: 6 per mouse over 3 readings) and the total score of the control group (vehicle intraperitoneally--apomorphine subcutaneously) is set to 100%.

The test system of data set [4] is extrapyramidal symptomatology. The note with it: monkey, in vivo, po.
Procedure: Adult male squirrel monkeys (Saimiri sciurens) are housed in individual home cages and fed twice daily with water available "ad libitum" when they are not in the test chambers.
On the test day, drugs are administered by oral intubation immediately prior to testing in volumes of 1.0 cc/kg of body weight. The compounds are dissolved in distilled water or suspended with the addition of one drop of Tween-80 per 10 cc of solution.
After dosing, the monkeys are placed in observation chambers in an isolated room. Two experienced investigators observe the monkeys for dyskinetic symptomatology at 2, 4 and 6 hours postdose. They score the monkeys for the following specific dyskinetic symptomatology:
Circling--when the monkey rapidly circles the cage floor
"Duck walk"--when the monkey walks in a seated position with arms curled and held tightly to his side
Limb extension--an abnormal, prolonged extension of one or more limbs, similar to but of longer duration than a stretching motion
Pushing--the monkey will push against the cage wall with his head or body, frequently at the end of a circling episode
Writhing--slow, writhing movements of the whole body frequently in conjunction with a pushing episode
Oral dyskinesias--chewing, gnawing and abnormal tongue protrusions
The following scoring index is used in order to quantify the severity of symptoms:
For another data set, the system named is conditioned avoidance. Description: Sidman Avoidance Paradigm in squirrel monkeys. The note with it: Primates. It is filed as in vivo, squirrel monkeys (Saimiri sciureus). The source says:
The subjects are male squirrel monkeys (Saimiri sciureus). They are housed in individual home cages in the animal quarters for at least six weeks prior to training. When they are not in the test chambers, the subjects are maintained in their home cages with water available ad libitum and food available twice daily.
The apparatus consists of test cages (BRS/LVE) with a single lever and house-light. This is enclosed in a sound-attenuating chamber (BRS/LVE) with fan and the chambers are in an isolated room equipped with a speaker emitting a white-noise auditory background. The test cages have a grid floor of steel bars which are attached to a scrambled shock source (Coulbourn Instruments). The house-lights, shockers and response levers are controlled by BRS/LVE electromechanical timer and controls. The records of responses and shocks are recorded on Coulbourn print-out counters and Gerbrands cumulative recorders.
The monkeys are trained to avoid an unsignaled shock by repetitive lever-pressing responses. A shock (1.0 mA for 0.5 seconds) is delivered to the grid floor every 20 seconds if no responses are made (shock-shock interval of 20 seconds: SS-20"). A lever-press (response) will delay the oncoming shock for 20 seconds (Response-Shock interval of 20 seconds: RS-20").
Every 15 minutes the total number of shocks received and the total number of responses made are accumulated and constitute the basic data. The animals are trained until they maintain a stable response-rate and are receiving no more than 50 shocks per 4 hour test session. After reaching these criteria of performance, experimental compounds are administered and their effects on the performance of this learned avoidance behavior are evaluated.
The drug's effect on performance of each animal is compared to the performance data generated in the previous non-drug session. Each animal thereby serves as its own control. The basic measures of performance during a specific time interval, responses and shocks, are used for evaluation. Responses are reported both as totals and as percent of control responses. Shocks are reported as totals and as shock-avoided (SHA) as percent of control. This latter measure is computed by subtracting the number of shocks received from the total number of possible shocks if no responses are made.
However, an ED50 may be estimated during a representative time of peak activity.

The mark [5] stands for this setting: squirrel monkeys, oral intubation immediately prior to testing, avoidance response, read-out: Antipsychotic Activity, Avoidance Response ED50.
The mark [6] stands for this setting: squirrel monkeys, oral intubation immediately prior to testing, escape response, read-out: Antipsychotic Activity, Escape Response ED50.

As to `Cl.Fc1ccc2c(CCCN3CCN(c4ccccc4Cl)CC3)noc2c1` [Example 4, 4-(2-Chlorophenyl)-1-[3-(6-fluoro-1,2-benzisoxazol-3-yl)propyl]piperazine hydrochloride], the “Blood Pressure Decrease (mean arterial blood pressure)” value (“Blood Pressure Decrease” below) in data set [1] turned out to be 55 mm/mercury.
For `CCC(=O)O[C@](Cc1ccccc1)(c1ccccc1)[C@H](C)CN(C)C` [propoxyphene, reference compound], the ED50 in data set [2] was determined as 3.9 mg/kg.
Regarding `N=C(N)NCCN1CCCCCCC1` [guanethidine, reference compound], the “Blood Pressure Decrease” value in data set [1] came out at 20 mm/mercury.
Regarding `Cc1ccccc1N1CCN(CCCc2noc3cc(F)ccc23)CC1` [Example 6, 1-[3-(6-Fluoro-1,2-benzisoxazol-3-yl)propyl]-4-(2-methylphenylpiperazine oxalate], the “Blood Pressure Decrease” value in data set [1] is reported as 33 mm/mercury.
On the same count and under the same terms, to `Cl.Fc1ccc2c(CCCN3CCN(c4cccc(C(F)(F)F)c4)CC3)noc2c1` [Example 5, 1-[3-(6-Fluoro-1,2-benzisoxazol-3-yl)propyl]-4-(3-trifluoromethylphenyl)piperazine hydrochloride] belongs 66 mm/mercury.
Consider `Fc1ccc(N2CCN(CCCc3noc4cc(F)ccc34)CC2)cc1.O=C(O)C(=O)O` [Example 3, 1-[3-(6-Fluoro-1,2-benzisoxazol-3-yl)propyl]-4-(4-fluorophenyl)piperazine oxalate], for which the “Blood Pressure Decrease” value in data set [1] is given as 33 mm/mercury.
As for `CSc1ccc2c(c1)N(CCC1CCCCN1C)c1ccccc1S2` (centres unmarked) [thioridazine], in data set [3] (dose 3.5 mg/kg of body wt), the “Antipsychotic Activity (% decrease in climbing score)” value is reported as 50%. Besides, the “% Monkeys showing extrapyramidal symptoms” value in data set [4] (3.5 mg/kg) and in data set [4] (7 mg/kg) was 100% each time. Moreover, the results for the 50% effective dose (ED50) in the data set on conditioned avoidance (setting [5]) and with conditioned avoidance (setting [6]) were 2.6 mg/kg and 3.5 mg/kg, respectively.
Consider `COc1ccccc1N1CCN(CCCc2noc3cc(F)ccc23)CC1` [Example 1, 1-[3-(6-Fluoro-1,2-benzisoxazol-3-yl)propyl]-4-(2-methoxyphenyl)piperazine dihydrochloride], for which the “Antipsychotic Activity (% decrease in climbing score)” value in data set [3] (dose 4.1 mg/kg of body wt) stood at 50%. In addition, the “% Monkeys showing extrapyramidal symptoms” value in data set [4] (3.5 mg/kg) turned out to be 0%; in data set [4] (5 mg/kg) it was 0%; in data set [4] (10 mg/kg), 66%. For the same molecule, the ED50 worked out at 5.2 mg/kg in data set [2] (mice, subcutaneous); 2.9 mg/kg in the data set on conditioned avoidance (setting [5]); 4.8 mg/kg in the data set with conditioned avoidance (setting [6]); 3.5 mg/kg with conditioned avoidance (squirrel monkeys, oral, printed as dose with * in Table V, read-out: ED50 value in the Sidman Avoidance Paradigm in squirrel monkeys (footnote * to Table V)).
Take `CC(C)=CCN1CCC2(C)c3cc(O)ccc3CC1C2C` (centres unmarked) [pentazocine, reference compound]: the 50% effective dose (ED50) in data set [2] is 1.3 mg/kg.
As for `Cl.Cl.Fc1ccc2c(CCCN3CCN(c4ccccn4)CC3)noc2c1` [Example 10, 1-[3-(6-Fluoro-1,2-benzisoxazol-3-yl)propyl]-4-(2-pyridyl)piperazine dihydrochloride], the “Antipsychotic Activity (% decrease in climbing score)” value in data set [3] (dose 10 mg/kg of body wt) came out at 31%. Also, the “Blood Pressure Decrease” value in data set [1] is listed as 66 mm/mercury. The ED50 in data set [2] (mice, subcutaneous) turned out to be 0.8 mg/kg.
Take `Fc1ccc2c(CCCN3CCN(c4ccccc4)CC3)noc2c1.O=C(O)C(=O)O` [Example 2, 1-[3-(6-Fluoro-1,2-benzisoxazol-3-yl)propyl]-4-phenylpiperazine oxalate]: the “Antipsychotic Activity (% decrease in climbing score)” value in data set [3] (dose 10 mg/kg of body wt) is reported as 31%. Moreover, the “Blood Pressure Decrease” value in data set [1] is given as 38 mm/mercury. Besides, the ED50 in data set [2] (mice, subcutaneous) stood at 1.8 mg/kg.
Turning to `O=C(CCCN1CCC(O)(c2ccc(Cl)cc2)CC1)c1ccc(F)cc1` [haloperidol], in data set [3] (dose 0.11 mg/kg of body wt), the “Antipsychotic Activity (% decrease in climbing score)” value was 50%. In addition, the “% Monkeys showing extrapyramidal symptoms” value in data set [4] (0.625 mg/kg) turned out to be 33%; in data set [4] (1.3 mg/kg), 100%. The ED50 was 1.21 mg/kg in the data set on conditioned avoidance (po, read-out: Antipsychotic Activity, Avoidance Response ED50); 1.27 mg/kg in the data set on conditioned avoidance (po, read-out: Antipsychotic Activity, Escape Response ED50); 1.3 mg/kg in the data set with conditioned avoidance (po, read-out: ED50 value in the Sidman Avoidance Paradigm in squirrel monkeys (footnote * to Table V)).

The ED50 is the midpoint of the dose-response relation.
